pIC50: −log10 of the molar value. One block for each molecule: values may come before it. Square brackets hold non-standard residues; d marks the D form. Side chains are listed from the residue outwards. Peptide text beside a SMILES is read from it. * marks the point of attachment. X1 = CCN(CC)c1ccc2c(-c3ccc(S(=O)(=O)*)cc3S(=O)(=O)O)c3ccc(=[N+](CC)CC)cc-3oc2c1; d2Nal = N[C@H](Cc1ccc2ccccc2c1)C(=O)O; Ahx = NCCCCCC(=O)O
Assays:
[1] = target: T1, caspase-3 (Homo sapiens, UniProt P42574); experiment: caspase-3 activity without XIAP (control arm of derepression assay); format: biochemical; details: TPI 1239 library; ratio, no XIAP
T1 construct: made in house; host or cells: bacteria
T1 sequence (P42574 29-175 limits assumed): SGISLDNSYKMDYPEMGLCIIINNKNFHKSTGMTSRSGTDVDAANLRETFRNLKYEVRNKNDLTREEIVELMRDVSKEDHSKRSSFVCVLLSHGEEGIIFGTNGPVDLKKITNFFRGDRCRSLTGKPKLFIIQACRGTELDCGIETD
T1 sequence (P42574 176-277 limits assumed): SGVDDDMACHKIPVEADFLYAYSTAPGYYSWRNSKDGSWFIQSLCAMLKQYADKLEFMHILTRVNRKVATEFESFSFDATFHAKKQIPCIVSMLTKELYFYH
Procedure: (§1) Caspase activity was assayed by release of 7-amino-4-trifluoromethyl-coumarin (AFC) from Ac-DEVD-AFC synthetic peptide using a Molecular Devices Spectromax 340 (see Zhou et al., J. Biol. Chem. 272:7797–7800 (1997)). […] The ratio of Vmax for hydrolysis of Ac-DEVD-AFC in the presence and absence of the candidate mixture was calculated and used to identify those that contain an agent that derepresses an IAP-inhibited caspase.
(§2) Screening of each mixture from the DCR390, TPI 1239 or TPI 1328 library, respectively, using the above described assay was carried out as follows. Each mixture was aliquoted in a 25 microliter volume and in duplicate to a well of a 96 well microtiter plate. […] Fluorescence of liberated AFC was immediately detected from each well for 30 minutes at 30 second intervals. The Vmax for hydrolysis of AC-DEVD-AFC from each well was measured using the softmax software package. Results of the screen for the DCR390 library are shown in Table I. Sets of mixtures having the same position fixed with different respective amino acids are arranged in 6 sections identified with the position number. […] The mixture in each section are arranged in descending order according to apparent velocity in the second column.

[2] = target: T2, XIAP-inhibited caspase-3 (Homo sapiens, UniProt P98170); experiment: caspase derepression assay (XIAP-inhibited caspase-3, Ac-DEVD-AFC hydrolysis); format: biochemical; details: for activity in the derepression assay using full length XIAP: active / inactive
T2 construct: in the derepression assay using full length XIAP; made in house; host or cells: bacteria
T2 sequence (P98170 whole entry): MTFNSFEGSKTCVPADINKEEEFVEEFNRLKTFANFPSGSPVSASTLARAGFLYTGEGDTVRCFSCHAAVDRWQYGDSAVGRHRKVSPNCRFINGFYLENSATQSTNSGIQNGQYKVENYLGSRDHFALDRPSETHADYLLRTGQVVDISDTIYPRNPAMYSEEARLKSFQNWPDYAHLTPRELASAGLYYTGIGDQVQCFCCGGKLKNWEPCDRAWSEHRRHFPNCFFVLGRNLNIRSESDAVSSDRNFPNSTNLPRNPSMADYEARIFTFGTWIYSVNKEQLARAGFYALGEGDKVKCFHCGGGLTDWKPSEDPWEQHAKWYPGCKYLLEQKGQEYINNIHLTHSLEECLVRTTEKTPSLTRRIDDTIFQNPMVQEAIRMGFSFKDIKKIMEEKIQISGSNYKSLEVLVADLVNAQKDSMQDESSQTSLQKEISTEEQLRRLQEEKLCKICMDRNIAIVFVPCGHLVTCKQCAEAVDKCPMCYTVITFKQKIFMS
Procedure: as §1, §2
Briefly, recombinant proteins were produced in bacteria and purified as described, for example, in Deveraux et al., Nature 388:300–304(1997). […] Generation of fluorogenic AFC (7-amino-4-trifluoromethyl coumarin) product was measured with a spectrofluorometric plate reader in kinetic mode for 30 minutes at 37° C. using excitation and emission wavelengths of 405 nm and 510 nm, respectively. […] Control reactions lacked XIAP, and all assays were conducted in the linear range of substrate hydrolysis to avoid substrate depletion artifacts.

[3] = mouse, in vivo
Procedure: Selected polyphenylurea compounds were tested for anti-tumor activity in vivo, using human tumor xenografts grown in immunocompromised mice. First, it was determined what doses of polyphenylurea compounds were tolerated by mice. […] For tumor xenograft studies, PPC1 prostate cancer cells (2.5 million) were injected subcutaneously into the flanks of 8 male Balb/C nu−/nu− mice. […] Tumor growth was monitored at least twice weekly by external calipers (see FIG. 32b). At 24 days after compound injections, mice were sacrificed and tumors were excised and weighed (see FIG. 32b, inset).
Sera were assayed for BUN, bilirubin, ALT and AST.

[4] = test system: NCI panel of 60 tumor cell lines; experiment: NCI panel of 60 tumor cell lines, protein-based colorimetric assay; parameters: species or system human; details: 48 hours
Procedure: Selected polyphenylurea compounds were tested on the National Cancer Institute (NCI) panel of 60 tumor cell lines (see FIG. 28a and FIG. 29).

[5] = test system: Jurkat leukemia cells; experiment: Jurkat cell death (Annexin V / propidium iodide flow cytometry); format: cell-based
Procedure: The following assay was used to test the ability of individual compounds from the TPI 1396 and TPI 1391 libraries to induce apoptosis of cultured tumor cell lines. Each of the compounds listed in Table IX was individually added to Jurkat leukemia cells (6.25×10^5 cells/mL) in RPMI containing 2.5% FBS at various concentrations for 20 hours. After incubation, cells were washed and stained with FITC-conjugated Annexin V antibody and propidium iodide (Biovision; Mountain View, Calif.). Cells were incubated for 20 minutes at room temperature in the dark and fluorescence was measured by flow cytometry (FACScan, Immunocytometry system; Becton-Dickinson; San Jose, Calif.). Cells staining positive for Annexin V were deemed non-viable.

[6] = test system: tumor tissue; experiment: in vivo caspase activation in tumors (immunoblot, immunohistochemistry); parameters: species or system Balb/c mice; details: 30 mg/kg i.p. for 3 successive days
[7] = stability in human serum; format: in vitro ADME; details: expected
[8] = test system: HCT-116 colon cancer cells; experiment: HCT-116 tumor xenograft; format: in vivo, Balb/C nu-/nu- mice; details: 30 mg/kg i.p. on days 6, 7 and 8
Procedure: Additional experiments were performed using a different tumor xenograft model. HCT-116 colon cancer cells (2.5 million) were injected subcutaneously in the flanks of female Balb/C nu−/nu− mice. […] Tumor volume was measured by external calipers at least twice weekly for 19 days (see FIG. 32c). On day 19, the mice were sacrificed and the tumors were excised and weighed.

[9] = test system: tumor cells with antigen-specific T cells; experiment: CTL-mediated lysis (51Cr release); format: cell-based; details: 10 μM, 4 hours
Procedure: After 4 hours, ^51Cr release was measured. Data shown in FIG. 39 are expressed as a percentage of total release induced by detergent lysis, and data represent mean±standard deviation of duplicate determinations.

[10] = test system: PPC1 prostate cancer cells; experiment: PPC1 tumor xenograft; format: in vivo, Balb/C nu-/nu- mice; details: 30 mg/kg i.p. for 2 or 3 days
From the text: Similar data was obtained using TPI 1396-22 (see FIG. 33a and 33b). […] In FIG. 33b, the mice were sacrificed at day 19 and the tumors excised and weighed.

[11] = test system: normal bone marrow mononuclear cells; experiment: normal bone marrow cell toxicity (Annexin V); format: cell-based; details: 5 μM, 20 hours
Procedure: After incubation, cells were washed, stained with FITC-conjugated Annexin V antibody and propidium iodide, and fluorescence measured by flow cytometry as described above.

[12] = target: XIAP binding to the SMAC peptide (Homo sapiens, UniProt P98170); experiment: SMAC competition / SMAC binding assay (biotinylated SMAC 7-mer, GST-XIAP)
XIAP binding to the SMAC peptide, sequence (P98170 whole entry): as above
Procedure: Peptide compounds containing unnatural amino acids in the 792 series, 792-33 and 792-35 (see FIG. 12 and 20 and Example XI), and an active compound in the TPI 1332 series, TPI 1332-69, were tested for binding activity in the SMAC binding assay as described above in Example X. For this assay, biotinylated SMAC 7-mer peptide (50 ng) was bound to 96 well plates coated with NeutrAvidin (Pierce, Rockford, Ill.) at 1 mg/ml in 100 μl per well of 50 mM HEPES pH 7.4, 100 mM NaCl, 1 mM EDTA, 10% sucrose, 0.1% CHAPS, 10 mM DTT.

[13] = test system: Du145 prostate cancer cells; experiment: sensitization to anticancer drugs (MTT assay); format: cell-based; details: 10 μM, 48 hours
Procedure: The percentage of viable cells relative to control was determined using a MTT (3-(4,5-dimethylthiazolyl-2)-2,5-diphenyltetrazolium bromide) assay which is commercially available (Sigma). […] Similar results were obtained for PPC1 (FIG. 31b) and PC3 (FIG. 31c) prostate cancer cells treated with VP16, DOX, or TAXOL, and for H460 (FIG. 31d) lung cancer cells treated with VP16 or DOX.

[14] = test system: Jurkat cells; experiment: caspase-3 and caspase-7 activity in whole Jurkat cells; format: cell-based; details: 8 μM, 20 hours
[15] = test system: U937 leukemia cells over-expressing XIAP; experiment: U937-Neo versus U937-XIAP cell death (Annexin V); format: cell-based; details: 5 or 8 μM, 20 hours
Procedure: After incubation, cells were washed, stained with FITC-conjugated Annexin V antibody and propidium iodide, and fluorescence measured by flow cytometry as described in Example XI.
Equal amounts of protein were subjected to SDS-PAGE (4–20% gradient gels from ISC BioExpress, Kaysville, Utah.), followed by transfer to nitrocellulose membranes. […] Secondary antibodies consisted of horseradish peroxidase (HRP)-conjugated goat anti-mouse IgG (Bio-Rad, Hercules, Calif.). Detection was performed by the enhanced chemiluminescence (ECL) method. […] Lysates were prepared from the cells, normalized for total protein content and analyzed by SDS-PAGE immunoblotting using antibodies specific for XIAP, caspase-3, and β-actin.

[16] = test system: PC-3 and LNCaP prostate cancer cell lines; experiment: clonogenic survival (colony formation) assay; format: cell-based; details: 10 μM
Procedure: In addition to short-term cytotoxicity assays, selected polyphenylurea compounds were tested for effects on clonogenic survival of cancer cells in colony formation assays, which can be considered a more stringent test of anticancer activity.

[17] = test system: HeLa cells; experiment: apoptosis of transfected HeLa cells (Annexin V); format: cell-based; details: 5 μM, 20 hours
Procedure: In addition to transfecting the cells with full-length XIAP, analogous assays were performed with HeLa cells transfected with plasmids over-expressing various XIAP mutants. […] The mutant was produced by site-directed mutagenesis to modify positions 148, 219, 223, 314 and 323 to contain alanine. HeLa cells were also transiently transfected with plasmids encoding Bcl-XL, an anti-apoptotic protein that operates upstream of caspases to suppress Cytochrome C release from mitochondria. HeLa cells (2.5×10^5) were seeded onto six well plates in 2 mL DMEM H21 with 5% FBS. After 24 hrs, cells were transfected (Gene Porter) with plasmids. […] Both floating and adherent cells were then recovered from cultures, washed, and apoptosis was determined by Annexin V staining using flow cytometry.
Bcl-XL over-expression did afford resistance to traditional anticancer drugs such as etoposide and CrmA (a caspase-8 inhibitor), and protected cells from apoptosis induced by TRAIL, confirming that these anti-apoptotic proteins were functional in these experiments.

[18] = test system: mouse embryo fibroblasts (MEFs), human prostate epithelial cells, peripheral blood lymphocytes (PBLs); experiment: normal cell viability (annexin-V, 2 days); format: cell-based; parameters: dose or concentration left out as unconfirmed
Procedure: After 2 days, cell viability was assessed by annexin-V staining.

[19] = test system: PPC1, ALVA31, DU145 and HeLa cells; experiment: sensitization to TRAIL-induced apoptosis; format: cell-based; details: 1 µM
Procedure: Similar tests of the effects of polyphenyl urea compounds on apoptosis induction by the biological agent TRAIL, an apoptosis inducing member of the Tumor Necrosis Factor (TNF) family were also performed.

[20] = target: His-BIR2 of XIAP; experiment: rhodamine fluorescence polarization competitive binding assay; details: titrated with TPI 1396-11; labeled compound 2.4 μM, His-BIR2 79 μM; read-out: IC50 of the labeled candidate compound
Procedure: In a second assay, competitive binding of candidate derepressors of IAP inhibited caspase was measured by a fluorescence polarization procedure. Fixed quantities of rhodamine-labeled candidate compound and IAP fragment were titrated against varying concentrations of a known IAP-binding compound. […] Polarization (millipolars or mP) was plotted against log concentration (log []) of the known IAP-binding compound. A plot of mP versus log concentration of the IAP-binding compound was then used to calculate the binding constant for the candidate compound-the IAP fragment pair.
Plates were incubated for one hour at room temperature, after which polarization of rhodamine was read in an LJL Analyst HT® multimode reader with excitation at 530 nm and emission at 580 nm.

- Vmax(mix + casp3) Vmax(casp3) [1]: 0.8 ± 0.0
- Vmax(mis + casp3 + XIAP) Vmax(casp3 + XIAP) ([2]; TPI 1239 library, ratio in the presence of XIAP): 3.8 ± 1.7
Structure (SMILES): CC[C@H](C)[C@H](NC(=O)[C@@H]1CCCN1C(=O)[C@@H](NC(=O)[C@H](C)N)C(C)C)C(=O)N[C@@H](C)C(=O)N[C@@H](CCC(N)=O)C(=O)N[C@@H](CCCCN)C(N)=O [SMAC, H-Ala-Val-Pro-Ile-Ala-Gln-Lys-NH2, reference compound] (H-AVPIAQK-NH2)

Structure (SMILES): CN(CCCCC(CNC(=O)Nc1ccccc1)N(CC1CCCN1CCCCC1CCCCC1)C(=O)Nc1ccccc1)C(=O)Nc1ccccc1 (stereo not shown) [TPI 1396-12]
- maximum tolerated dose [3]: 200 to 400 mg/kg
- average LD50 for the 60 cell lines [4]: 7.6 ± 12 µM
- median LD50 for the 60 cell lines [4]: 6 µM
- % nonviable cells ([5]; 1 µM): 15%
- % nonviable cells ([5]; 5 µM): 95%
- % nonviable cells ([5]; 10 μM): 89%
- % nonviable cells ([5]; 25 µM): 89%
- % nonviable cells ([5]; 50 µM): 85%
- caspase activation in tumors in vivo [6]: induce caspase activation in tumors in vivo
- tumor proliferation (surrogate marker PCNA) [6]: no effect on tumor proliferation
- stable in human serum [7]: greater than 48 hours
- Activity (relative caspase-3 activity, ratio of Vmax with compound to Vmax of caspase-3 and XIAP controls) ([2]; Table X, R2 = L-Proline): 2.7
- activity in the derepression assay using full length XIAP [2]: active

Structure (SMILES): COc1ccc(CCN2CCC[C@@H]2CN(C(=O)Nc2ccccc2)[C@@H](CNC(=O)Nc2ccccc2)CC2CCCCC2)cc1 [TPI 1396-34]
- tumor size [8]: tumor size was reduced
- effect on CTL-mediated lysis [9]: sensitizes tumor targets to CTL-mediated lysis
- tumor growth / tumor size [10]: reduced tumor size
- toxicity to normal bone marrow cells [11]: little toxicity
- competition with XIAP binding to the SMAC peptide [12]: does not compete
- effect on cytotoxicity of VP16, DOX and TAXOL [13]: significantly increased dose-dependent cytotoxicity
- time to half-maximal killing ([5]; 10 μM): approximately 12 hours
- time to maximum killing ([5]; 10 μM): about 24 hours
- apoptosis with 100 μM zVAD-fmk ([5]; 20 hours): suppressible
- caspase activation [14]: induced caspase activation
- effect of XIAP over-expression on apoptosis induction [15]: over-expression of XIAP rendered U937 cells resistant
- colony formation [16]: < 5 % of control
- apoptosis in HeLa cells over-expressing Bcl-XL [17]: not blocked
- apoptosis in HeLa cells over-expressing full-length XIAP [17]: protected
- apoptosis in HeLa cells transfected with a control vector [17]: induced apoptosis
- increase of percentage cell death above background [18]: less than one-fold
- effect on TRAIL-induced apoptosis [19]: sensitized
- activity in the derepression assay using full length XIAP [2]: active

Structure (SMILES): CCN(CC)c1ccc2c(-c3ccc(S(=O)(=O)NCCCCCC(=O)NCCCC[C@H](NC(=O)[C@@H](Cc4ccc5ccccc5c4)NC(=O)[C@H](Cc4c[nH]c5ccccc45)NC(=O)[C@H](Cc4c[nH]c5ccccc45)NC(=O)[C@H](C)N)C(N)=O)cc3S(=O)(=O)O)c3ccc(=[N+](CC)CC)cc-3oc2c1 [TPI 1566-11] (H-AWW[d2Nal]K([Ahx-X1])-NH2)
- pIC50 [20]: 5.00
